{"source": "patent US20040248801A1", "about": "“Methods and reagents for regulation of cellular responses in biological systems” (priority 2000, published 2004)", "key": {"[1]": {"target": "glucose/galactose-binding protein (GGBP) (Escherichia coli, UniProt P0AEE5)", "sequence (P0AEE5 24-332 limits assumed)": "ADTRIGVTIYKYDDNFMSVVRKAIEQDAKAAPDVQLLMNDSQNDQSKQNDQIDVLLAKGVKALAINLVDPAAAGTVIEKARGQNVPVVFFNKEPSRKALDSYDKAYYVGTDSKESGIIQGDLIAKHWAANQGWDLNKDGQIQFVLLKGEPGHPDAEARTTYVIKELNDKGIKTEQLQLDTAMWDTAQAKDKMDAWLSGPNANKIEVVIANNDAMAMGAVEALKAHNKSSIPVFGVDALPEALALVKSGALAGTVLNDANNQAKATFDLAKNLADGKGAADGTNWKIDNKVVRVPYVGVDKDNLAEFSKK", "assay": "in vitro binding assay with purified GGBP", "source_text": "The molecular events leading to bacterial chemotaxis have been well studied, and the process has served as a general model for receptor-mediated responses. During chemotaxis in Escherichia coli, chemoattractants, such as sugars and amino acids, and chemorepellents are recognized by specific receptors at the bacterial plasma membrane. For these investigations of multivalent ligand activity, galactose was selected as a model chemoattractant. […] For galactose-mediated signaling, the saccharide must bind to the soluble periplasmic glucose/galactose-binding protein (GGBP), which, in turn, interacts with the galactose-sensing chemoreceptor, Trg. Galactose-GGBP binding to Trg initiates a signaling pathway that results in reversal of the direction of flagellar spin, allowing the bacteria to swim towards the nutrient.\nGalactose-bearing ligands 1-4 of varying defined valencies were generated using ROMP methods (Scheme 1). The galactose residues in the multivalent ligands are tethered to the molecular scaffold (polymer backbone) via a short linker."}, "E. coli AW405": {"tested_on": "E. coli AW405", "assay": "video microscopy motion analysis of bacteria", "format": "cell-based, Escherichia coli", "details": "first 5-15 seconds after addition of attractant", "protocol": "FIG. 2A: Results of video microscopy motion analysis experiments. Bacteria (Escherichia coli) were treated with buffer alone, galactose, or compound 1 or 3 (Scheme 1) at the indicated saccharide concentrations. The results represent the average from at least five independent experiments performed in triplicate. Error bars represent the deviation between per-second averages during the ten second interval.\nLigands functionalized with galactose such as monovalent ligand 1 and multivalent ligand 3, also serve as attractants in vivo. […] To observe the effects of synthetic ligands on tumbling frequency, E. coli were treated with galactose or galactose-bearing ligands, and bacterial motion was recorded and analyzed using the method of Sager et al.. The tumbling frequency was assessed by averaging the mean angular velocity of the paths obtained in the first 5-15 seconds after addition of attractant (FIG. 2A). […]\nPartially permeabilized bacteria (25 μM EDTA for 3 min. at room temperature, then quench with 50 μM CaCl2) at an OD550 of 0.1 were placed under a cover slip supported by additional cover slips in the method of Sager et al.. […] The bacterial motion at 28° C. was recorded, and the paths were analyzed using the ExpertVision system. Paths derived from the first 5 to 15 seconds following the introduction of attractant were analyzed. […] Data were analyzed using the Q and Students tests."}, "B. subtilis 011085": {"tested_on": "B. subtilis 011085", "assay": "B. subtilis capillary accumulation assay", "format": "cell-based, Bacillus subtilis", "source_text": "FIG. 4: Results of B. subtilis capillary accumulation assays using ROMP-derived glucose ligands (compound 5-7, Scheme 1). Buffer alone, glucose, or glucose-bearing compounds 5-7 were used as attractants in the capillary accumulation assay. Results are shown for glucose, compound 5, compound 6, and compound 7. Results are the average of at least four trials performed in duplicate and error bars represent single standard deviations.\nTo test the generality of the observed valency-dependent differences in chemotactic activities and to investigate the role of membrane permeability in responses to our ligands, chemotactic experiments in B. subtilis were conducted. B. subtilis is a gram-positive bacterium that, like gram-negative E. coli, is able to respond to saccharide chemoattractants. In the case of B. subtilis, the multivalent ligands can directly interact with saccharide-sensing receptors, without having to first traverse the outer membrane. Glucose is a chemoattractant for B. subtilis, but galactose is not. Glucose-carrying ligands (compounds 5-7, Scheme 1) were effective chemoattractants for B. subtilis as shown in capillary accumulation assays. […] Free chemoattractant signal glucose had maximal activity as a chemoattractant at 0.5 mM. In analogy to observations with E. coli, as the valency of the ligand increases, the saccharide residue concentration of maximum chemotaxis decreases. […] The results observed indicate that in evolutionarily divergent bacteria E. coli and B. subtilis, the valency of the attractant influences chemotactic response.\nE. coli from an overnight culture were grown in LB to OD550 0.4-0.6, washed twice with E. coli chemotaxis buffer, and then partially permeabilized. Bacteria were resuspended in chemotaxis buffer to an OD550 0.1 and utilized in the capillary accumulation assay at 30° C. for 60 min, as previously described. […] Data was analyzed using the Q and Students tests."}}, "data": [{"compound": "O=C(NCCOC1OC(CO)C(O)C(O)C1O)C1C[C@@H]2C=CC1C2", "note": "(stereo partly drawn) [Compound 1]", "values": [{"measurement": "interaction with purified GGBP compared with galactose", "setting": "[1]", "result": "at least as favorable as that of galactose"}, {"measurement": "mean angular velocity (tumbling frequency) after addition of attractant", "setting": "E. coli AW405", "result": "produced similar effects to that of the free chemoattractant"}, {"measurement": "chemoattractant activity for B. subtilis", "setting": "B. subtilis 011085", "result": "not chemoattractants"}]}]}
